Source: publication PMC5218480 (PLoS ONE, 2017)

System: MV-4-11 cells
Assay: Gene expression microarray analysis (Affymetrix PrimeView) and GSEA
Type: cell-based, human
Parameters: RFU PODN (11730768_x_at) / Fold change /veh PODN (11730768_x_at) / RFU LINC00158 (11744669_a_at) / Fold change /veh LINC00158 (11744669_a_at) / RFU DUSP10 (11751237_a_at) / Fold change /veh DUSP10 (11751237_a_at) / RFU ID3 (11757404_x_at) / Fold change /veh ID3 (11757404_x_at) / RFU PLEKHG5 (11737974_s_at) / Fold change /veh PLEKHG5 (11737974_s_at) / RFU LRRC4B (11730491_at) / Fold change /veh LRRC4B (11730491_at) / RFU GIMAP4 (11747438_a_at) / Fold change /veh GIMAP4 (11747438_a_at) / RFU KRT8 (11758183_x_at) / Fold change /veh KRT8 (11758183_x_at) / RFU CNN1 (11734310_a_at) / Fold change /veh CNN1 (11734310_a_at) / RFU VPS37D (11726825_at) / Fold change /veh VPS37D (11726825_at) / RFU C10orf10 (11716522_x_at) / Fold change /veh C10orf10 (11716522_x_at) / RFU KIR2DL2 /// KIR2DL4 /// KIR2DL5A /// KIR2DL5B /// KIR2DS1 /// KIR2DS2 /// KIR2DS3 /// KIR2DS4 /// KIR3DL3 /// KIR3DL3 /// KIR3DS1 (11738374_at) / Fold change /veh KIR2DL2 /// KIR2DL4 /// KIR2DL5A /// KIR2DL5B /// KIR2DS1 /// KIR2DS2 /// KIR2DS3 /// KIR2DS4 /// KIR3DL3 /// KIR3DL3 /// KIR3DS1 (11738374_at) / RFU C1QL1 (11718748_at) / Fold change /veh C1QL1 (11718748_at) / RFU TMPRSS4 (11747572_a_at) / Fold change /veh TMPRSS4 (11747572_a_at) / RFU HAMP (11756126_x_at) / Fold change /veh HAMP (11756126_x_at) / RFU RNFT2 (11725882_a_at) / Fold change /veh RNFT2 (11725882_a_at) / RFU NR4A2 (11747474_a_at) / Fold change /veh NR4A2 (11747474_a_at) / RFU ABCC12 (11746883_a_at) / Fold change /veh ABCC12 (11746883_a_at) / RFU TMEM136 (11760407_x_at) / Fold change /veh TMEM136 (11760407_x_at) / RFU CLDN22 /// WWC2 (11732394_at) / Fold change /veh CLDN22 /// WWC2 (11732394_at) / RFU HLA-DPB1 (11760878_x_at) / Fold change /veh HLA-DPB1 (11760878_x_at) / RFU SPINT1 (11716480_a_at) / Fold change /veh SPINT1 (11716480_a_at) / RFU GAP43 (11754022_s_at) / Fold change /veh GAP43 (11754022_s_at) / RFU A4GNT (11735810_at) / Fold change /veh A4GNT (11735810_at) / RFU PRB3 (11715151_x_at) / Fold change /veh PRB3 (11715151_x_at) / RFU TUBB4B (11761932_at) / Fold change /veh TUBB4B (11761932_at) / RFU CAPN14 (11732068_a_at) / Fold change /veh CAPN14 (11732068_a_at) / RFU TMCC2 (11721928_a_at) / Fold change /veh TMCC2 (11721928_a_at) / RFU IRGQ (11745062_a_at) / Fold change /veh IRGQ (11745062_a_at) / RFU FAM174B (11720279_a_at) / Fold change /veh FAM174B (11720279_a_at) / RFU TMPRSS4 (11748680_a_at) / Fold change /veh TMPRSS4 (11748680_a_at) / RFU FAM212B (11763350_a_at) / Fold change /veh FAM212B (11763350_a_at) / RFU PLEKHG5 (11743358_a_at) / Fold change /veh PLEKHG5 (11743358_a_at) / RFU ZSCAN30 (11745921_a_at) / Fold change /veh ZSCAN30 (11745921_a_at) / RFU CMKLR1 (11741424_a_at) / Fold change /veh CMKLR1 (11741424_a_at) / RFU LOC101060620 /// MAPK8IP1 (11723275_at) / Fold change /veh LOC101060620 /// MAPK8IP1 (11723275_at) / RFU SPTSSB (11747773_x_at) / Fold change /veh SPTSSB (11747773_x_at) / RFU PRSS12 (11739890_at) / Fold change /veh PRSS12 (11739890_at) / RFU BIN1 (11741810_x_at) / Fold change /veh BIN1 (11741810_x_at) / RFU WNT11 (11732464_a_at) / Fold change /veh WNT11 (11732464_a_at) / RFU C10orf10 (11716521_a_at) / Fold change /veh C10orf10 (11716521_a_at) / RFU C5orf56 (11738089_at) / Fold change /veh C5orf56 (11738089_at) / RFU CYB561 (11721691_x_at) / Fold change /veh CYB561 (11721691_x_at) / RFU ANKRD19P (11752326_a_at) / Fold change /veh ANKRD19P (11752326_a_at) / RFU OR2T12 /// OR2T33 /// OR2T8 (11738714_s_at) / Fold change /veh OR2T12 /// OR2T33 /// OR2T8 (11738714_s_at) / RFU VCAN (11748164_a_at) / Fold change /veh VCAN (11748164_a_at) / RFU JSRP1 (11732532_at) / Fold change /veh JSRP1 (11732532_at) / RFU KRTAP10-11 (11738290_x_at) / Fold change /veh KRTAP10-11 (11738290_x_at) / RFU MYO3A (11730013_a_at) / Fold change /veh MYO3A (11730013_a_at) / RFU EBF3 (11725865_a_at) / Fold change /veh EBF3 (11725865_a_at) / RFU CAMK2N1 (11719241_x_at) / Fold change /veh CAMK2N1 (11719241_x_at) / RFU C5orf56 (11738088_a_at) / Fold change /veh C5orf56 (11738088_a_at) / RFU OLFML3 (11715873_a_at) / Fold change /veh OLFML3 (11715873_a_at) / RFU LOC100653217 /// NTM (11731650_a_at) / Fold change /veh LOC100653217 /// NTM (11731650_a_at) / RFU MAPK11 (11762145_a_at) / Fold change /veh MAPK11 (11762145_a_at) / RFU FIZ1 (11724087_x_at) / Fold change /veh FIZ1 (11724087_x_at) / RFU OASL (11726364_x_at) / Fold change /veh OASL (11726364_x_at) / RFU SOX15 (11748057_x_at) / Fold change /veh SOX15 (11748057_x_at) / RFU CD79A (11719716_a_at) / Fold change /veh CD79A (11719716_a_at) / RFU HIST1H1D (11736915_at) / Fold change /veh HIST1H1D (11736915_at) / RFU CASKIN2 (11723855_a_at) / Fold change /veh CASKIN2 (11723855_a_at) / RFU LOC730098 (11760151_x_at) / Fold change /veh LOC730098 (11760151_x_at) / RFU OR4N2 (11742367_at) / Fold change /veh OR4N2 (11742367_at) / RFU PRRT2 (11749266_a_at) / Fold change /veh PRRT2 (11749266_a_at) / RFU SNX32 (11753110_a_at) / Fold change /veh SNX32 (11753110_a_at) / RFU CDHR5 (11726645_a_at) / Fold change /veh CDHR5 (11726645_a_at) / RFU RCAN1 (11760418_a_at) / Fold change /veh RCAN1 (11760418_a_at) / RFU FAM167A (11723789_a_at) / Fold change /veh FAM167A (11723789_a_at) / RFU FAM26E (11764081_at) / Fold change /veh FAM26E (11764081_at) / RFU ISYNA1 (11749810_s_at) / Fold change /veh ISYNA1 (11749810_s_at) / RFU ACY1 (11761880_at) / Fold change /veh ACY1 (11761880_at) / RFU 11764098_at / Fold change /veh 11764098_at / RFU SAMD14 (11745864_x_at) / Fold change /veh SAMD14 (11745864_x_at) / RFU NPB (11741838_a_at) / Fold change /veh NPB (11741838_a_at) / RFU TMPRSS6 (11731388_a_at) / Fold change /veh TMPRSS6 (11731388_a_at) / RFU KRTAP10-2 (11738614_at) / Fold change /veh KRTAP10-2 (11738614_at) / RFU ARHGAP8 /// PRR5-ARHGAP8 (11727945_x_at) / Fold change /veh ARHGAP8 /// PRR5-ARHGAP8 (11727945_x_at) / RFU KRTAP5-7 /// NADSYN1 (11734609_at) / Fold change /veh KRTAP5-7 /// NADSYN1 (11734609_at) / RFU RASL12 (11751679_a_at) / Fold change /veh RASL12 (11751679_a_at) / RFU CDKN2B (11736163_a_at) / Fold change /veh CDKN2B (11736163_a_at) / RFU PRF1 (11729649_at) / Fold change /veh PRF1 (11729649_at) / RFU, ZNF638 /// ZNF638-IT1 / Fold change vs veh, ZNF638 /// ZNF638-IT1 / RFU, PANK3 / Fold change vs veh, PANK3 / RFU, SH3YL1 / Fold change vs veh, SH3YL1 / RFU, ZEB2 / Fold change vs veh, ZEB2 / RFU, NRIP1 / Fold change vs veh, NRIP1 / RFU, PTTG1IP / Fold change vs veh, PTTG1IP / RFU, CAPN2 / Fold change vs veh, CAPN2 / RFU, MED14 / Fold change vs veh, MED14 / RFU, SNORA58 / Fold change vs veh, SNORA58 / RFU, C1orf63 / Fold change vs veh, C1orf63 / RFU, LRRFIP1 / Fold change vs veh, LRRFIP1 / RFU, NDUFAF7 / Fold change vs veh, NDUFAF7 / RFU, SLC12A2 / Fold change vs veh, SLC12A2 / RFU, IBTK / Fold change vs veh, IBTK / RFU, ESF1 / Fold change vs veh, ESF1 / Fold change vs veh, TMEM50B / RFU, TAOK1 / Fold change vs veh, TAOK1 / RFU, ACBD3 / Fold change vs veh, ACBD3 / RFU, TMA16 / Fold change vs veh, TMA16 / RFU, RWDD3 / Fold change vs veh, RWDD3 / RFU, BCAT1 / Fold change vs veh, BCAT1 / RFU, EDEM3 / Fold change vs veh, EDEM3 / RFU, TMEM33 / Fold change vs veh, TMEM33 / RFU, WDR75 / Fold change vs veh, WDR75 / RFU, AHCTF1 / Fold change vs veh, AHCTF1 / RFU, TFRC / Fold change vs veh, TFRC / RFU, ZDHHC17 / Fold change vs veh, ZDHHC17 / RFU, NOM1 / Fold change vs veh, NOM1 / RFU, ARL8B / Fold change vs veh, ARL8B / RFU, ZBTB11 / Fold change vs veh, ZBTB11 / RFU, TAMM41 / Fold change vs veh, TAMM41 / RFU, KIAA1704 /// LOC100996395 / Fold change vs veh, KIAA1704 /// LOC100996395 / RFU, ING1 / Fold change vs veh, ING1 / RFU, TRMT61B / Fold change vs veh, TRMT61B / RFU, FUBP3 / Fold change vs veh, FUBP3 / RFU, TP53 / Fold change vs veh, TP53 / RFU, TNKS2 / Fold change vs veh, TNKS2 / RFU, ZFP14 / Fold change vs veh, ZFP14 / RFU, ACTR2 / Fold change vs veh, ACTR2 / RFU, PPP3R1 / Fold change vs veh, PPP3R1 / RFU, PIK3R1 / Fold change vs veh, PIK3R1 / RFU, HNRNPA1 / Fold change vs veh, HNRNPA1 / RFU, RNF170 / Fold change vs veh, RNF170 / RFU, ZNF28 / Fold change vs veh, ZNF28 / RFU, RNGTT / Fold change vs veh, RNGTT / RFU, OGT / Fold change vs veh, OGT / RFU, BRD1 / Fold change vs veh, BRD1 / RFU, MARS / Fold change vs veh, MARS / RFU, ZNF655 / Fold change vs veh, ZNF655 / RFU, FAHD1 / Fold change vs veh, FAHD1 / RFU, BDP1 / Fold change vs veh, BDP1 / RFU, LRRCC1 / Fold change vs veh, LRRCC1 / RFU, ARID1A / Fold change vs veh, ARID1A / RFU, ZNF146 / Fold change vs veh, ZNF146 / RFU, ZNF330 / Fold change vs veh, ZNF330 / RFU, GPN3 / Fold change vs veh, GPN3 / RFU, C9orf123 / Fold change vs veh, C9orf123 / RFU, N4BP2L2 / Fold change vs veh, N4BP2L2 / RFU, ARFIP1 / Fold change vs veh, ARFIP1 / RFU, FAM179B / Fold change vs veh, FAM179B / RFU, BCL10 / Fold change vs veh, BCL10 / RFU, UHRF1BP1L / Fold change vs veh, UHRF1BP1L / RFU, BET1 / Fold change vs veh, BET1 / RFU, CNOT2 / Fold change vs veh, CNOT2 / RFU, ZNF268 / Fold change vs veh, ZNF268 / Fold change vs veh, ZNF507 / RFU, DGCR2 / Fold change vs veh, DGCR2 / RFU, WDSUB1 / Fold change vs veh, WDSUB1 / Fold change vs veh, HSP90B1 /// MIR3652 / RFU, ADSS / Fold change vs veh, ADSS / RFU, GK / Fold change vs veh, GK / RFU, ZNF148 / Fold change vs veh, ZNF148 / RFU, TAF9 / Fold change vs veh, TAF9 / RFU, SLC1A5 / Fold change vs veh, SLC1A5 / RFU, SLMO2 / Fold change vs veh, SLMO2 / RFU, ABCC4 / Fold change vs veh, ABCC4 / RFU, LOC101060439 /// RAP1B / Fold change vs veh, LOC101060439 /// RAP1B / RFU, RFX7 / Fold change vs veh, RFX7 / RFU, GTPBP10 / Fold change vs veh, GTPBP10 / RFU, CNEP1R1 / Fold change vs veh, CNEP1R1 / RFU, BIVM-ERCC5 /// ERCC5 / Fold change vs veh, BIVM-ERCC5 /// ERCC5 / RFU, ILF3 / Fold change vs veh, ILF3 / RFU 11762660_at / Fold change /veh 11762660_at / RFU VCAN (11757783_s_at) / Fold change /veh VCAN (11757783_s_at) / RFU DDX43 (11728927_at) / Fold change /veh DDX43 (11728927_at) / RFU KRT8 (11758188_x_at) / Fold change /veh KRT8 (11758188_x_at) / RFU NKD1 (11759106_at) / Fold change /veh NKD1 (11759106_at) / RFU SRD5A1 (11742802_a_at) / Fold change /veh SRD5A1 (11742802_a_at) / RFU TPSAB1 /// TPSB2 (11721975_s_at) / Fold change /veh TPSAB1 /// TPSB2 (11721975_s_at) / RFU GSTM3 (11746129_a_at) / Fold change /veh GSTM3 (11746129_a_at) / RFU IL23R (11737362_x_at) / Fold change /veh IL23R (11737362_x_at) / RFU TMEM51 (11727254_a_at) / Fold change /veh TMEM51 (11727254_a_at) / RFU PIWIL2 (11732686_x_at) / Fold change /veh PIWIL2 (11732686_x_at) / RFU ORM1 (11744905_x_at) / Fold change /veh ORM1 (11744905_x_at) / RFU CCDC152 (11743942_at) / Fold change /veh CCDC152 (11743942_at) / RFU ECM1 (11717891_a_at) / Fold change /veh ECM1 (11717891_a_at) / RFU IL23R (11748794_a_at) / Fold change /veh IL23R (11748794_a_at) / RFU TNFAIP8L3 (11732012_x_at) / Fold change /veh TNFAIP8L3 (11732012_x_at) / RFU MBOAT4 (11741988_at) / Fold change /veh MBOAT4 (11741988_at) / RFU 11764193_at / Fold change /veh 11764193_at / RFU TMEM53 (11763286_at) / Fold change /veh TMEM53 (11763286_at) / RFU MAGEB2 (11727129_at) / Fold change /veh MAGEB2 (11727129_at) / RFU TMEM200A (11744735_a_at) / Fold change /veh TMEM200A (11744735_a_at) / RFU CCDC152 (11751479_a_at) / Fold change /veh CCDC152 (11751479_a_at) / RFU FAM211A (11726209_a_at) / Fold change /veh FAM211A (11726209_a_at) / RFU RGS16 (11746705_a_at) / Fold change /veh RGS16 (11746705_a_at) / RFU VCAN (11755009_s_at) / Fold change /veh VCAN (11755009_s_at) / RFU RHOB (11743442_s_at) / Fold change /veh RHOB (11743442_s_at) / RFU RGS16 (11720943_a_at) / Fold change /veh RGS16 (11720943_a_at) / RFU RGS16 (11720944_at) / Fold change /veh RGS16 (11720944_at) / RFU, VPS4B / Fold change vs veh, VPS4B / RFU, CREB1 / Fold change vs veh, CREB1 / RFU, DNAJC13 / Fold change vs veh, DNAJC13 / RFU, GNAQ / Fold change vs veh, GNAQ / RFU, CDK5R1 / Fold change vs veh, CDK5R1 / RFU, ZRANB3 / Fold change vs veh, ZRANB3 / RFU, CUL4A / Fold change vs veh, CUL4A / RFU, CCNY / Fold change vs veh, CCNY / RFU, UFL1 / Fold change vs veh, UFL1 / RFU, COG3 / Fold change vs veh, COG3 / RFU, DIAPH2 / Fold change vs veh, DIAPH2 / RFU, SKA2 / Fold change vs veh, SKA2 / RFU, AFF3 / Fold change vs veh, AFF3 / RFU, LMF1 / Fold change vs veh, LMF1 / RFU, IPO11 / Fold change vs veh, IPO11 / RFU, DFFB / Fold change vs veh, DFFB / RFU, FOXP1 / Fold change vs veh, FOXP1 / RFU, CARD8 / Fold change vs veh, CARD8 / RFU, STRN3 / Fold change vs veh, STRN3 / RFU, ADK / Fold change vs veh, ADK / RFU, RASSF2 / Fold change vs veh, RASSF2 / RFU, WIPF1 / Fold change vs veh, WIPF1 / RFU, LARP1B / Fold change vs veh, LARP1B / RFU, RASA1 / Fold change vs veh, RASA1 / RFU, RB1 / Fold change vs veh, RB1 / RFU, PPFIA1 / Fold change vs veh, PPFIA1 / RFU, MAT2A / Fold change vs veh, MAT2A / RFU, CCT5 / Fold change vs veh, CCT5 / RFU, WDR92 / Fold change vs veh, WDR92 / RFU, CUX1 / Fold change vs veh, CUX1 / RFU, TTC7A / Fold change vs veh, TTC7A / RFU, TMEM135 / Fold change vs veh, TMEM135 / RFU, DEPTOR / Fold change vs veh, DEPTOR / RFU, CPM / Fold change vs veh, CPM / RFU, DNAJB6 / Fold change vs veh, DNAJB6 / RFU, CACNA2D3 / Fold change vs veh, CACNA2D3 / RFU, DTX4 / Fold change vs veh, DTX4 / RFU, TFCP2 / Fold change vs veh, TFCP2 / RFU, GMCL1 /// GMCL1P1 / Fold change vs veh, GMCL1 /// GMCL1P1 / RFU, AEBP2 / Fold change vs veh, AEBP2 / RFU, SNHG1 /// SNORD22 /// SNORD25 /// SNORD26 /// SNORD27 /// SNORD28 /// SNORD29 /// SNORD31 / Fold change vs veh, SNHG1 /// SNORD22 /// SNORD25 /// SNORD26 /// SNORD27 /// SNORD28 /// SNORD29 /// SNORD31 / Fold change (Aza/veh), C12orf56 (ProbeSet 11735607_a_at) / Fold change (ACY-1035/veh), C12orf56 (ProbeSet 11735607_a_at) / Fold change (Aza/veh), FGFR1OP (ProbeSet 11751329_s_at) / Fold change (ACY-1035/veh), FGFR1OP (ProbeSet 11751329_s_at) / Fold change (Aza/veh), VPS36 (ProbeSet 11739960_a_at) / Fold change (ACY-1035/veh), VPS36 (ProbeSet 11739960_a_at) / RFU SYPL1 (11715823_x_at) / Fold change /veh SYPL1 (11715823_x_at) / RFU IGFBP7 (11715501_s_at) / Fold change /veh IGFBP7 (11715501_s_at) / RFU REEP3 (11722064_at) / Fold change /veh REEP3 (11722064_at) / RFU IGLL1 (11728026_x_at) / Fold change /veh IGLL1 (11728026_x_at): dose or concentration left out as unconfirmed
Details: MV-4-11 cells, 48 hours

## Nc1ccc(-c2cccs2)cc1NC(=O)c1ccc2c(c1)cc(C1CC1)n2CCN1CCOCC1 [ACY-1035]
  RFU TMEM200A (11744735_a_at): 5.05 RFU
